From US20240285614A1, “PHENOL RIBONUCLEOTIDE REDUCTASE (RNR) INHIBITORS AND USES THEREOF” (Boundless Bio, Inc., priority 2023, published 2024)
pIC50: −log10 of the molar value.

Assays:
[1] = tested on: pCHK1 (S345) in Colo320 DM cells; assay: Alphalisa assay, detection of pCHK1 (S345) in Colo320 DM cells; type: cell-based; settings: Homo sapiens, COLO 320DM, compound incubation overnight (approximately 16 hours)
Experimental: Colo320 DM cells (ATCC #CCL-220, derived from human colorectal adenocarcinoma, Dukes' type C) were seeded on a 96-well, cell culture treated assay plate at a density of 50,000 cells/well in 200 μL of RPMI-1640 media supplemented with 10% Fetal Bovine Serum and incubated at 37° C. overnight. The following day, test compound dilutions were added directly to the plated cells by a Tecan digital dispenser to a final DMSO concentration of <0.5%, and incubated at 37° C. overnight (approximately 16 hours). The following day all cull culture media was removed from the cells. 75 μL of 1× AlphaLisa lysis buffer was added to each well and plates were agitated on a shaker for 30 minutes at room temperature. The lysis of cells and detection of pCHK1 (S345) were performed with regents contained within the AlphaLisa Sure Fire assay kit (Perkin Elmer #ALSU-PCHK1-A) according to the manufacturer's instructions. 10 μL of each lysate was then transferred to a white, 384-well assay plate (Perkin Elmer #6008280), 5 μL of Acceptor mix was then added to each well of lysate in the white, 384-well assay plate and incubated in the dark at room temperature for 60 minutes. 5 μL of Donor mix was then added to each well of the white, 384-well assay plate in subdued light and incubated at room temperature for 60 minutes. Plates were read on an Alpha Technology-compatible plate reader using standard AlphaLisa settings.

RNR (RNR1:RNR2 1:1) = target: T1, RNR (RNR1:RNR2 1:1) (Homo sapiens, UniProt P23921+P31350); assay: RNR enzyme activity, rapid-fire mass spectrometry (RF/MS) assay; type: biochemical; settings: RNR 50 nM, 1:1 (RNR1:RNR2); CDP 5 μM; ATP 1 mM; 37° C., 45 min; compounds screened up to 50 μM
T1 sequence (P23921 1-792): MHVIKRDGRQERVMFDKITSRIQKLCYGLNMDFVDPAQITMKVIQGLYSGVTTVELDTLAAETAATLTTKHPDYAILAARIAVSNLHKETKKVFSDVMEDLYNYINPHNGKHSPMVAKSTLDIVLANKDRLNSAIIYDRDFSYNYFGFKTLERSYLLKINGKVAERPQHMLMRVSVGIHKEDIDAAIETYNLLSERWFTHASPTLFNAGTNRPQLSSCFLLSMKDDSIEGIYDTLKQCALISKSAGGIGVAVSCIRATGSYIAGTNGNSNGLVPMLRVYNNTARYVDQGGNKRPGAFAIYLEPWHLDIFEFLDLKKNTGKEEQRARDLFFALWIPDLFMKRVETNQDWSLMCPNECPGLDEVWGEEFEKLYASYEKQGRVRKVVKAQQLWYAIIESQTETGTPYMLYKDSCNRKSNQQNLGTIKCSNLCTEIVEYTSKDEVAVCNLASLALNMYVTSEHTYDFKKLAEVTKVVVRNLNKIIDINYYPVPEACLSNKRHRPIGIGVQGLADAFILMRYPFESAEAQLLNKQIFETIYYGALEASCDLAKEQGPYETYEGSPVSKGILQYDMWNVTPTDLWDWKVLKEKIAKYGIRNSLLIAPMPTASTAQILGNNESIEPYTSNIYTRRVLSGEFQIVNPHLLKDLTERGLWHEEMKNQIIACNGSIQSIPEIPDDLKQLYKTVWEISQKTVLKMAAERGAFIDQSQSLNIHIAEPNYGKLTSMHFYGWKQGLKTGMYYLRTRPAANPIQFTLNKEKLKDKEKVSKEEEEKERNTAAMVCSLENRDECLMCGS
T1 sequence (P31350 1-389): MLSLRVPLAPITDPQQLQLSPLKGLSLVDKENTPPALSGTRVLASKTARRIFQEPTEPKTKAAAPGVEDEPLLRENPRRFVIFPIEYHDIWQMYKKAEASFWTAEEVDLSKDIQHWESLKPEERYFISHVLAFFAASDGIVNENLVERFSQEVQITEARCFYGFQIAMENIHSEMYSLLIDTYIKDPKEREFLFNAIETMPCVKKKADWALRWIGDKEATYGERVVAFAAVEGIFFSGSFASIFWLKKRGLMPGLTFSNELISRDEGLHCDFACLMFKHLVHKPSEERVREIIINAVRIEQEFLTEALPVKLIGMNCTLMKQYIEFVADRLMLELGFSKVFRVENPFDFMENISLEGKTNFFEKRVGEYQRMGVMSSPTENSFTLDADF
Experimental: A rapid-fire mass spectrometry (RF/MS) assay was used to assess RNR enzyme activity using a 384 well plate and a robotic platform.
The plate layout included two validated reference compounds (Triapine (3-AP) and Hydroxyurea (HU)): • A dose response in duplicate, top concentration: 5 μM (3-AP) and 250 μM (HU), semi-log • dilutions. • Spike wells in triplicate randomly spotted at four concentrations: • 250 μM, 100 μM, 30 μM and 2 μM for HU • 5 μM, 2 μM, 0.6 μM and 0.04 μM for 3-AP
First, the multidrop pipes were saturated for 30 minutes with enzymatic solution. Then 30 μL of Stop solution was distributed in column 24. Next, 15 μL of enzyme was distributed in column 1 to 24. Next, a pre-incubation step of 15 minutes at room temperature occurred, followed by distribution of 15 μL of substrate solution (column 1 to 24). Next, the plate was incubated for 45 minutes at 37° C. 30 μL of Stop solution was distributed to columns 1 to 23.
The final parameters for the enzyme reactions were: • Incubation: 37° C., 45 min • [CDP]: 5 μM: [ATP]: 1 mM; [NADPH]: No • [RNR]final: 50 nM with 1:1 (RNR1:RNR2) ratio • Final volume: 30 μL • Stop solution: 6% HCOOH containing 2 μM of 15

With `Cn1ccc2ccc(S(=O)(=O)N3CCC4(CCN(c5ccc(O)cc5)CC4)C3)cc21` [compound 41, 4-(2-((1-methyl-1H-indol-6-yl)sulfonyl)-2,8-diazaspiro[4.5]decan-8-yl)phenol] the pIC50 [1] was 4.30 to 5.00 and the pIC50 (RNR (RNR1:RNR2 1:1)) was 6.30 to 7.00.
In the case of `O=S(=O)(c1ccc2cc[nH]c2c1)N1CCN(c2ccc(O)cc2)CC12CC2` [compound 33, 4-(4-((1H-indol-6-yl)sulfonyl)-4,7-diazaspiro[2.5]octan-7-yl)phenol], the pIC50 [1] was 5.30 to 6.00.
For `O=S(=O)(NC1CN(c2ccc(O)cc2)C1)c1ccc2cc[nH]c2c1` [compound 10, N-(1-(4-hydroxyphenyl)azetidin-3-yl)-1H-indole-6-sulfonamide], the pIC50 [1] was 5.30 to 6.00 and the pIC50 (RNR (RNR1:RNR2 1:1)) was 7.00 to 7.30.
`O=S(=O)(c1ccc2cc[nH]c2c1)N1CCN(c2ccc(O)cc2)CC1` [compound 2, 4-(4-((1H-indol-6-yl)sulfonyl)piperazin-1-yl)phenol] gave a pIC50 [1] of 5.30 to 6.00 and a pIC50 (RNR (RNR1:RNR2 1:1)) of 7.00 to 7.30.
`O=S(=O)(c1ccc2cc[nH]c2c1)N1CCCN(c2ccc(O)cc2)CC1` [compound 14, 4-(4-((1H-indol-6-yl)sulfonyl)-1,4-diazepan-1-yl)phenol] showed a pIC50 [1] of 5.00 to 5.30 and a pIC50 (RNR (RNR1:RNR2 1:1)) of at least 7.30.
With `O=S(=O)(c1cccc2[nH]ccc12)N1CCN(c2ccc(O)cc2)CC1` [compound 7, 4-(4-((1H-indol-4-yl)sulfonyl)piperazin-1-yl)phenol] the pIC50 [1] was 5.30 to 6.00 and the pIC50 (RNR (RNR1:RNR2 1:1)) was 7.00 to 7.30.
For `O=S(=O)(c1ccc2cc[nH]c2c1)N1C[C@H]2COC[C@@H](C1)N2c1ccc(O)cc1` [compound 17, 4-((1R,5S)-7-((1H-indol-6-yl)sulfonyl)-3-oxa-7,9-diazabicyclo[3.3.1]nonan-9-yl)phenol], the pIC50 [1] was at least 6.00 and the pIC50 (RNR (RNR1:RNR2 1:1)) was at least 7.30.
Work on `CN(c1ccc(O)cc1)C1CN(S(=O)(=O)c2cc3[nH]cc(Cl)c3cc2F)C1` [compound 22, 4-((1-((3-chloro-5-fluoro-1H-indol-6-yl)sulfonyl)azetidin-3-yl)(methyl)amino)phenol] yielded a pIC50 [1] of 5.30 to 6.00 and a pIC50 (RNR (RNR1:RNR2 1:1)) of at least 7.30.
Compound `CN(c1ccc(O)cc1)C1CN(S(=O)(=O)c2ccc3ccn(C)c3c2)C1` [compound 23, 4-(methyl(1-((1-methyl-1H-indol-6-yl)sulfonyl)azetidin-3-yl)amino)phenol] has a pIC50 [1] of 5.30 to 6.00 and a pIC50 (RNR (RNR1:RNR2 1:1)) of at least 7.30.
Work on `O=S(=O)(c1ccc2cc[nH]c2c1)N1CCC(Oc2ccc(O)cc2)CC1` [compound 43, 4-((1-((1H-indol-6-yl)sulfonyl)piperidin-4-yl)oxy)phenol] yielded a pIC50 [1] of 5.30 to 6.00 and a pIC50 (RNR (RNR1:RNR2 1:1)) of at least 7.30.
Work on `O=S(=O)(c1ccc2[nH]ccc2c1)N1CCN(c2ccc(O)cc2)CC1` [compound 9, 4-(4-((1H-indol-5-yl)sulfonyl)piperazin-1-yl)phenol] yielded a pIC50 [1] of 5.00 to 5.30 and a pIC50 (RNR (RNR1:RNR2 1:1)) of 6.30 to 7.00.
`C[C@@H]1CN(c2ccc(O)cc2)CCN1S(=O)(=O)c1ccc2cc[nH]c2c1` [compound 21, (R)-4-(4-((1H-indol-6-yl)sulfonyl)-3-methylpiperazin-1-yl)phenol] showed a pIC50 [1] of 5.30 to 6.00 and a pIC50 (RNR (RNR1:RNR2 1:1)) of at least 7.30.
For `CN(c1ccc(O)cc1)C1CCN(S(=O)(=O)c2cc3[nH]c(Cl)cc3cc2F)C1` (racemic) [compound 32, rac-(R)-4-((1-((2-chloro-5-fluoro-1H-indol-6-yl)sulfonyl)pyrrolidin-3-yl)(methyl)amino)phenol], the pIC50 [1] was 5.30 to 6.00.
`CN(c1ccc(O)cc1)C1CCN(S(=O)(=O)c2ccc3[nH]ccc3c2)C1` (racemic) [compound 30, rac-(R)-4-((1-((1H-indol-5-yl)sulfonyl)pyrrolidin-3-yl)(methyl)amino)phenol] was tested, and the pIC50 [1] was at least 6.00 and the pIC50 (RNR (RNR1:RNR2 1:1)) was at least 7.30.
Work on `CN(c1ccc(O)cc1)C1CN(S(=O)(=O)c2ccc3cc[nH]c3c2)C2(CC2)C1` (racemic) [compound 38, rac-(R)-4-((4-((1H-indol-6-yl)sulfonyl)-4-azaspiro[2.4]heptan-6-yl)(methyl)amino)phenol] yielded a pIC50 [1] of 5.30 to 6.00 and a pIC50 (RNR (RNR1:RNR2 1:1)) of at least 7.30.
In the case of `CN(c1ccc(O)cc1)C1CN(S(=O)(=O)c2ccc3[nH]ccc3c2)C1` [compound 27, 4-((1-((1H-indol-5-yl)sulfonyl)azetidin-3-yl)(methyl)amino)phenol], the pIC50 [1] was at least 6.00 and the pIC50 (RNR (RNR1:RNR2 1:1)) was at least 7.30.
`O=C1C[C@@H]2CN(S(=O)(=O)c3ccc4cc[nH]c4c3)C[C@H](C1)N2c1ccc(O)cc1` [compound 42, (1R,5S)-3-((1H-indol-6-yl)sulfonyl)-9-(4-hydroxyphenyl)-3,9-diazabicyclo[3.3.1]nonan-7-one] was tested, and the pIC50 [1] was 5.30 to 6.00.
`Cn1ccc2cc(S(=O)(=O)N3CCN(c4ccc(O)cc4)CC3)ccc21` [compound 4, 4-(4-((1-methyl-1H-indol-5-yl)sulfonyl)piperazin-1-yl)phenol] showed a pIC50 [1] of 5.00 to 5.30 and a pIC50 (RNR (RNR1:RNR2 1:1)) of 6.30 to 7.00.
In the case of `CN(c1ccc(O)cc1)C1CCN(S(=O)(=O)c2cccc3[nH]ccc23)C1` (racemic) [compound 31, rac-(R)-4-((1-((1H-indol-4-yl)sulfonyl)pyrrolidin-3-yl)(methyl)amino)phenol], the pIC50 [1] was 5.30 to 6.00 and the pIC50 (RNR (RNR1:RNR2 1:1)) was at least 7.30.
Compound `C[C@@H]1C[C@H](N(C)c2ccc(O)cc2)CN1S(=O)(=O)c1ccc2cc[nH]c2c1` (racemic) [compound 37, rac-4-(((3R,5S)-1-((1H-indol-6-yl)sulfonyl)-5-methylpyrrolidin-3-yl)(methyl)amino)phenol] has a pIC50 [1] of 5.30 to 6.00 and a pIC50 (RNR (RNR1:RNR2 1:1)) of at least 7.30.
Compound `CCN(c1ccc(O)cc1)C1CN(S(=O)(=O)c2ccc3cc[nH]c3c2)C1` [compound 25, 4-((1-((1H-indol-6-yl)sulfonyl)azetidin-3-yl)(ethyl)amino)phenol] has a pIC50 [1] of at least 6.00 and a pIC50 (RNR (RNR1:RNR2 1:1)) of at least 7.30.
`O=S(=O)(c1ccc2cc[nH]c2c1)N1CCC2C1CCCN2c1ccc(O)cc1` (centres unmarked) [compound 49, 4-(1-((1H-indol-6-yl)sulfonyl)octahydro-4H-pyrrolo[3,2-b]pyridin-4-yl)phenol] was tested, and the pIC50 [1] was 5.30 to 6.00.
With `O=S(=O)(c1ccc2cc[nH]c2c1)N1CC2CC1CN2c1ccc(O)cc1` (centres unmarked) [compound 35, 4-(5-((1H-indol-6-yl)sulfonyl)-2,5-diazabicyclo[2.2.1]heptan-2-yl)phenol] the pIC50 [1] was 4.30 to 5.00 and the pIC50 (RNR (RNR1:RNR2 1:1)) was 6.30 to 7.00.
Work on `C[C@H]1C[C@H](N(C)c2ccc(O)cc2)CN1S(=O)(=O)c1ccc2cc[nH]c2c1` (racemic) [compound 48, rac-4-(((3R,5R)-1-((1H-indol-6-yl)sulfonyl)-5-methylpyrrolidin-3-yl)(methyl)amino)phenol] yielded a pIC50 [1] of 5.30 to 6.00.
For `O=S(=O)(c1ccc2cc[nH]c2c1)N1CC=C(c2ccc(O)cc2)CC1` [compound 8, 4-[1-(1H-indol-6-ylsulfonyl)-3,6-dihydro-2H-pyridin-4-yl]phenol], the pIC50 [1] was 5.30 to 6.00.
